Data taken from patent US20240239814A1, “Complexes Of CU(I) As Antitumor Agents” (priority 2021, published 2024).
Where two headings read alike, the source gives them in different places. Marks after values point to notes of the source that are not given here.

Columns and labels:
[1] = system: human cervical carcinoma cells A431; assay: MTT cytotoxicity assay, 72 h, A431; format: cell-based; conditions: MTT test, mean ± SD
Text: (§1) Human breast (MCF-7), lung (H157), pancreatic (PSN-1) and colon (HCT-15 and LoVo) carcinoma cell lines were obtained from the American Type Culture Collection (ATCC, Rockville, MD). A431 are human cervical carcinoma cells kindly provided by Prof. F. Zunino (Molecular Pharmacology Unit, Experimental Oncology and Molecular Medicine, Istituto Nazionale dei Tumori, Milan, Italy). […] G. Marverti (Dept. of Biomedical Science, University of Modena, Italy).
(§2) Briefly, depending upon the growth characteristics of the cell line, 3-8×10^3 cells well^−1, were seeded in 96-well microplates in growth medium (100 μL) and then incubated at 37° C. in a 5% carbon dioxide atmosphere. After 24 h, the medium was removed and replaced with a fresh one containing the compound to be studied, at the appropriate concentration, dissolved in 0.9% sodium chloride solution just before use. Triplicate cultures were established for each treatment. After 72 h, each well was treated with 10 μL of a 5 mg mL^−1 MTT saline solution and, after 5 h of incubation, 100 μL of a sodium dodecylsulfate (SDS) solution in 0.01 M HCl were added. After an overnight incubation, the inhibition of cell growth induced by the tested complexes was determined by measuring the absorbance of each well at 570 nm using a Bio-Rad 680 microplate reader. Mean absorbance for each drug dose was expressed as percentage of the control and plotted vs. drug concentration. Dose-response curves were fitted and IC50 values were calculated with four parameter logistic model (4PL).
(§3) The cytotoxicity was evaluated by means of the MTT test for 72 h treatment with increasing concentrations of the tested compounds.
(§4) Cytotoxic activity was examined against a panel of human tumor cell lines. […] The growth inhibitory effect was evaluated by means of MTT test. Cells (5-8×10^3 mL^−1, depending on the growth characteristics of the cell line) were treated for 72 h with increasing concentrations of tested compounds. […] SD=standard deviation, -=not detected.

[2] = system: human colon carcinoma cells HCT-15; assay: MTT cytotoxicity assay, 72 h, HCT-15; format: cell-based; conditions: MTT test, mean ± SD
Text: as §1, §2, §3, §4

[3] = system: human lung carcinoma cells H157; assay: MTT cytotoxicity assay, 72 h, H157; format: cell-based; conditions: MTT test, mean ± SD
Text: as §1, §2, §3, §4

[4] = system: human pancreatic carcinoma cells PSN-1; assay: MTT cytotoxicity assay, 72 h, PSN-1; format: cell-based; conditions: MTT test, mean ± SD
Text: as §1, §2, §3, §4

[5] = system: human ovarian cancer cells 2008; assay: MTT cytotoxicity assay, 72 h, 2008
Text: as §1, §2, §3, §4, §3, §4

[6] = system: human breast carcinoma cells MCF-7; assay: MTT cytotoxicity assay, 72 h, MCF-7; format: cell-based; conditions: MTT test, mean ± SD
Text: as §1, §2, §3, §4

[7] = system: human colon cancer cells LoVo; assay: MTT cytotoxicity assay, 72 h, LoVo; format: cell-based; conditions: MTT test, mean ± SD
Procedure: Triplicate cultures were established for each treatment.
. A LoVo cell line retaining a multidrug resistance phenotype was also considered (LoVo MDR). Cross-resistance profiles were evaluated by means of the resistance factor (RF), which is defined as the ratio between the IC50 value for the resistant cells and that arising from the sensitive cells (Table 3).
Cytotoxicity was assessed by MTT test. […]. Resistant Factor (in brackets) is defined as IC50 resistant/parent line.

LoVo-OXP cells = assay: MTT cytotoxicity assay, 72 h, LoVo-OXP (oxaliplatin resistant); format: cell-based, human; conditions: MTT test, mean ± SD
Text: as §1, §2
(§5) A LoVo cell line retaining a multidrug resistance phenotype was also considered (LoVo MDR). Cross-resistance profiles were evaluated by means of the resistance factor (RF), which is defined as the ratio between the IC50 value for the resistant cells and that arising from the sensitive cells (Table 3).
Cells (5×10^3 mL-1) were treated for 72 h with increasing concentrations of tested compounds. Cytotoxicity was assessed by MTT test. […] Resistant Factor (in brackets) is defined as IC50 resistant/parent line.

LoVo MDR cells = assay: MTT cytotoxicity assay, 72 h, LoVo MDR (multidrug resistant); format: cell-based, human; conditions: MTT test, mean ± SD
Text: as §1, §2, §5
Cells (5×10^3 mL-1) were treated for 72 h with increasing concentrations of tested compounds. Cytotoxicity was assessed by MTT test. […] Resistant Factor (in brackets) is defined as IC50 resistant/parent line. […]

[8] = system: panel of human tumor cell lines; assay: Average cytotoxic activity over the cell panel (MTT) compared with reference drugs; conditions: on average over the cell panel
Procedure: as §2, §3
Cytotoxic activity was examined against a panel of human tumor cell lines. […] The growth inhibitory effect was evaluated by means of MTT test. […] SD=standard deviation, -=not detected.

[9] = system: murine Lewis lung carcinoma (LLC); assay: In vivo anticancer activity toward Lewis lung carcinoma; parameters: species or system C57BL mice; conditions: for Average tumor weight (mean ± SD, g) / Inhibition of tumor growth (%): daily i.p. from day 9, measured at day 15, 6: 5 mg kg^−1, 9: 3 mg kg^−1, cisplatin: 1.5 mg kg^−1; for Inhibition of tumor growth (%): referred to control animals
Procedure: (§6) The mice were purchased from Charles River, Italy, housed in steel cages under controlled environmental conditions (constant temperature, humidity, and 12 h dark/light cycle), and alimented with commercial standard feed and tap water ad libitum. Animals were observed daily, and body weight and food intake recorded. The Lewis lung carcinoma (LLC) cell line was purchased from ECACC, UK. The LLC cell line was maintained in D-MEM (Euroclone) supplemented with 10% heat-inactivated FBS (Euroclone), 10 mM L-glutamine, 100 U mL^−1 penicillin, and 100 μg mL^−1 streptomycin in a 5% CO2 air incubator at 37° C. […] At day 15, animals were sacrificed, the legs were amputated at the proximal end of the femur, and the inhibition of tumor growth was determined according to the difference in weight of the tumor-bearing leg and the healthy leg of the animals expressed as % referred to the control animals. Body weight was measured every two days and was taken as a parameter for systemic toxicity. All the values are the means±S.D. of not less than three measurements. Multiple comparisons were made by Tukey-Kramer test (** p<0.01; * p or °p<0.05).
(§7) For the assessment of the adverse side effects, changes in body weights of tumor-bearing mice were monitored daily (FIG. 1).
Starting from day 9 after tumor implantation, tested compounds were daily administered i.p. At day 15, mice were sacrified and tumor growth was detected as described above.

[10] = Procedure: as §6, §7
[11] = system: panel of human cancer cells; conditions: 2D monolayer, cited from earlier work
[12] = system: human cancer cell lines endowed with acquired or natural resistance to CDDP or to OXP; conditions: fold lower IC50 in resistant cell lines; cited from earlier work
[13] = system: HCT-15 colon cancer spheroids; conditions: HCT-15 spheroids; cited from earlier work
[14] = system: LoVo colon cancer spheroids; conditions: cited from earlier work
[15] = compared with CDDP; cited from earlier work
[16] = cited from earlier work
Lewis Lung Carcinoma = conditions: different schedules, compared with CDDP; cited from earlier work
[17] = animals of the Lewis Lung Carcinoma model; cited from earlier work
[18] = system: human colorectal cancer xenografts; conditions: oxaliplatin-sensitive and resistant models; cited from earlier work
proteasome = conditions: cited from earlier work
[19] = system: human non transformed cells; conditions: average IC50 normal cells / average IC50 malignant cells; cited from earlier work
[20] = read-out: IC50 2008, MTT test, mean ± SD, Table 1

## F[B-](F)(F)F.O=Cc1ccccc1P(c1ccccc1)c1ccccc1.O=Cc1ccccc1P(c1ccccc1)c1ccccc1.[Cu+] [Compound 9, Bis[2-(diphenylphosphanyl)benzaldehyde]copper(I) tetrafluoroborate]
[1]
  IC50: 4.7 ± 0.6 µM
[2]
  IC50: 0.8 ± 0.2 µM
[3]
  IC50: 1.5 ± 0.2 µM
[4]
  IC50: 1.1 ± 0.5 µM
[5]; [20]
  IC50: 0.6 ± 0.1 µM
[6]
  IC50: 1.3 ± 0.3 µM
[7]
  IC50: 0.6 ± 0.2 µM
LoVo-OXP cells
  IC50: 1.1 ± 0.6 µM
LoVo MDR cells
  IC50: 0.8 ± 0.5 µM
[8]; times more effective than cisplatin
  average cytotoxic activity relative to cisplatin: 4.8 times
[8]; times more effective than oxaliplatin
  average cytotoxic activity relative to oxaliplatin: 3.8 times
[9]; 3 mg kg^−1 daily i.p., day 15
  reduction of the tumor mass: 83%
[9]
  Average tumor weight (mean ± SD, g): 0.098 ± 0.06** g
  Inhibition of tumor growth (%): 83.4%
[10]; doses 5 and 3 mg kg^−1 represent ⅓ of the MTD
  tolerability compared with cisplatin: better tolerated than cisplatin

## F[P-](F)(F)(F)(F)F.OCP(CO)CO.OCP(CO)CO.OCP(CO)CO.OCP(CO)CO.[Cu+] [[Cu(thp)4][PF6]]
[11]; fold more cytotoxic than CDDP
  cytotoxicity relative to CDDP: up to 50 fold
[11]; fold more cytotoxic than OXP
  cytotoxicity relative to OXP: ≤ 30 fold
[12]
  IC50 relative to the reference metallodrugs: up to 35 fold
[13]
  IC50 relative to OXP: very similar to those of OXP
[14]
  IC50 relative to OXP: very similar to those of OXP
[15]
  median lethal doses (LD50) and maximum tolerated doses (MTD): significantly higher that those recorded with CDDP
[16]
  solubility and stability in water solution: highly soluble and stable in water solution
Lewis Lung Carcinoma
  inhibition of proliferation of tumor cell population in vivo: superior to that induced by the gold-standard drug CDDP
[17]
  clinical signs of toxicity: no clinical signs of toxicity and no anorexia
[18]
  efficacy of chemotherapy in xenografts: extremely effective in both oxaliplatin-sensitive and resistant models
proteasome
  effect on proteolytic activities of proteasome: inhibit the proteolytic activities of proteasome
[19]
  selectively index relative to CDDP: about 30 times
  selectively index relative to OXP: 3 times

## N.N.[Cl][Pt][Cl] [cisplatin, cis-diamminedichloroplatinum(II), reference compound]
[1]
  IC50: 2.1 ± 0.8 µM
[2]
  IC50: 15.3 ± 2.6 µM
[3]
  IC50: 2.1 ± 0.9 µM
[4]
  IC50: 18.3 ± 3.1 µM
[5]; [20]
  IC50: 2.2 ± 0.5 µM
[5]; read-out: IC50 2008, MTT test, mean ± SD, Table 2
  IC50: 2.2 ± 0.5 µM
[6]
  IC50: 7.6 ± 0.2 µM
[9]
  Average tumor weight (mean ± SD, g): 0.119 ± 0.10** g
  Inhibition of tumor growth (%): 79.8%
[10]; mouse, in vivo, ip
  body weight loss: > 20%
